pKi: −log10 of the molar value.
Biological target: human H3 receptor (Homo sapiens, UniProt Q9Y5N1)
Assay: H3 Receptor Binding (Human) Method 2, [125I]-iodoproxyfan competitive radioligand binding
Set-up: expressed in transfected cells
Details: read-out: Human H3 Ki
Method: SK-N-MC cells expressing the human H3 receptor were grown to confluence and tissue culture plates, washed with phosphate-buffered saline, and scraped into 50 mL tubes. After centrifugation, the supernatant was aspirated, and the pellets frozen and stored at −80° C. […] The homogenate was centrifuged at 25000×g for 25 min. […] Reactions were stopped by filtration through GF/B filter plates pre-soaked in 0.3% polyethylenimine and subsequently washed with Tris 50 mM, 5 mM EDTA buffer. Plates were dried for 1 h in a 55° C. oven. Scintillation fluid was added and the radioactivity was counted in a Packard TopCount. Non-specific binding to the H3 receptor was defined by radioactivity that was bound in the presence of 100 μM histamine.
Compounds were tested in their free base or hydrochloride salt forms.

Chain of human H3 receptor (Q9Y5N1 whole entry): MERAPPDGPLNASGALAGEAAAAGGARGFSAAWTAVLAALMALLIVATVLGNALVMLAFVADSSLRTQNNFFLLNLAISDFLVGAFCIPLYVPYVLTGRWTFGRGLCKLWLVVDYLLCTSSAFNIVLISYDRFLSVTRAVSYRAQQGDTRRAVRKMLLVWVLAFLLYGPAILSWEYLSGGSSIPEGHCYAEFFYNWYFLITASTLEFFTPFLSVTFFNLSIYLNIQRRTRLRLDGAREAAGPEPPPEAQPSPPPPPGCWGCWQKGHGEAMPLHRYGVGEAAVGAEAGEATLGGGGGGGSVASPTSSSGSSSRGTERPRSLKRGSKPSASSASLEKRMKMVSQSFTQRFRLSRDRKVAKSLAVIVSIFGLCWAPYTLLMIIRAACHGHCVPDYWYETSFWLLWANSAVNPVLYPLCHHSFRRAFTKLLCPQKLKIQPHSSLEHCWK

Compound	pKi
CC(C)(C)OC(=O)N1C[C@H](Oc2ccccn2)C[C@H]1C(=O)N1CCCN(C2CCC2)CC1 (stereo in doubt) [Example 50, (2S,4R)-2-(4-Cyclobutyl-[1,4]diazepane-1-carbonyl)-4-(pyridin-2-yloxy)-pyrrolidine-1-carboxylic acid tert-butyl ester]	8.30
Cc1cnc(F)cc1O[C@@H]1C[C@@H](C(=O)N2CCCN(C3CCC3)CC2)N(C(=O)OC(C)(C)C)C1 (stereo in doubt) [Example 51, (2S,4R)-2-(4-Cyclobutyl-[1,4]diazepane-1-carbonyl)-4-(2-fluoro-5-methyl-pyridin-4-yloxy)-pyrrolidine-1-carboxylic acid tert-butyl ester]	8.70
CC(C)(C)OC(=O)N1CC[C@H](O)[C@H]1C(=O)N1CCCN(C2CCC2)CC1 [Example 3, (2S,3S)-2-(4-Cyclobutyl-[1,4]diazepane-1-carbonyl)-3-hydroxy-pyrrolidine-1-carboxylic acid tert-butyl Ester]	5.90
CC(C)(C)OC(=O)N1C[C@@H](O)C[C@@H]1C(=O)N1CCCN(C2CCC2)CC1 [Example 4, (2R,4S)-2-(4-Cyclobutyl-[1,4]diazepane-1-carbonyl)-4-hydroxy-pyrrolidine-1-carboxylic acid tert-butyl Ester]	7.28
CC(C)(C)OC(=O)N1C[C@H](O)C[C@@H]1C(=O)N1CCCN(C2CC2)CC1 [Example 5, (2R,4R)-2-(4-Cyclopropyl-[1,4]diazepane-1-carbonyl)-4-hydroxy-pyrrolidine-1-carboxylic acid tert-butyl Ester]	5.90
CC(C)(C)OC(=O)N1C[C@H](O)C[C@@H]1C(=O)N1CCN(C2CCCC2)CC1 [Example 6, (2R,4R)-2-(4-Cyclopentyl-piperazine-1-carbonyl)-4-hydroxy-pyrrolidine-1-carboxylic acid tert-butyl Ester]	5.96
CC(C)(C)OC(=O)N1C[C@H](O)C[C@@H]1C(=O)N1CCCN(C2CCCC2)CC1 [Example 7, (2R,4R)-2-(4-Cyclopentyl-[1,4]diazepane-1-carbonyl)-4-hydroxy-pyrrolidine-1-carboxylic acid tert-butyl Ester]	6.36
CC(C)(C)OC(=O)N1C[C@H](O)C[C@@H]1C(=O)N1CCCN(C2CCC2)CC1 [Example 8, (2R,4R)-2-(4-Cyclobutyl-[1,4]diazepane-1-carbonyl)-4-hydroxy-pyrrolidine-1-carboxylic acid tert-butyl Ester]	6.27
O=C([C@H]1C[C@@H](O)CN1C(=O)OCc1ccccc1)N1CCCN(C2CCC2)CC1 [Example 9, (2R,4R)-2-(4-Cyclobutyl-[1,4]diazepane-1-carbonyl)-4-hydroxy-pyrrolidine-1-carboxylic Acid Benzyl Ester]	7.30
CC(=O)N1C[C@@H](O)C[C@@H]1C(=O)N1CCCN(C2CCC2)CC1 [Example 10, (2R,4S)-1-[2-(4-Cyclobutyl-[1,4]diazepane-1-carbonyl)-4-hydroxy-pyrrolidin-1-yl]-ethanone]	6.94
CC(C)(C)OC(=O)N1C[C@@H](Oc2ccccc2)C[C@H]1C(=O)N1CCCN(C2CCC2)CC1 [Example 14, (2S,4S)-2-(4-Cyclobutyl-[1,4]diazepane-1-carbonyl)-4-phenoxy-pyrrolidine-1-carboxylic acid tert-butyl ester]	6.90
CSc1ccc(O[C@H]2C[C@H](C(=O)N3CCCN(C4CCC4)CC3)N(C(=O)OC(C)(C)C)C2)cc1 [Example 23, (2R,4S)-2-(4-Cyclobutyl-[1,4]diazepane-1-carbonyl)-4-(4-methylsulfanyl-phenoxy)-pyrrolidine-1-carboxylic acid tert-butyl ester]	8.15
Cc1cc(O[C@H]2C[C@H](C(=O)N3CCCN(C4CCC4)CC3)N(C(=O)OC(C)(C)C)C2)ccc1Cl [Example 24, (2R,4S)-4-(4-Chloro-3-methyl-phenoxy)-2-(4-cyclobutyl-[1,4]diazepane-1-carbonyl)-pyrrolidine-1-carboxylic acid tert-butyl ester]	8.40
CC(C)(C)OC(=O)N1C[C@@H](Oc2ccc(S(C)(=O)=O)cc2)C[C@@H]1C(=O)N1CCCN(C2CCC2)CC1 [Example 25, (2R,4S)-2-(4-Cyclobutyl-[1,4]diazepane-1-carbonyl)-4-(4-methanesulfonyl-phenoxy)-pyrrolidine-1-carboxylic acid tert-butyl ester]	8.30
COc1cccc(O[C@H]2C[C@H](C(=O)N3CCCN(C4CCC4)CC3)N(C(=O)OC(C)(C)C)C2)c1 [Example 26, (2R,4S)-2-(4-Cyclobutyl-[1,4]diazepane-1-carbonyl)-4-(3-methoxy-phenoxy)-pyrrolidine-1-carboxylic acid tert-butyl ester]	7.92
CC(C)(C)OC(=O)N1C[C@@H](Oc2ccc(C(F)(F)F)cc2)C[C@@H]1C(=O)N1CCCN(C2CCC2)CC1 [Example 28, (2R,4S)-2-(4-Cyclobutyl-[1,4]diazepane-1-carbonyl)-4-(4-trifluoromethyl-phenoxy)-pyrrolidine-1-carboxylic acid tert-butyl ester]	8.15

Compound	pKi
Cc1ccc(O[C@H]2C[C@H](C(=O)N3CCCN(C4CCC4)CC3)N(C(=O)OC(C)(C)C)C2)cc1 [Example 29, (2R,4S)-2-(4-Cyclobutyl-[1,4]diazepane-1-carbonyl)-4-p-tolyloxy-pyrrolidine-1-carboxylic acid tert-butyl ester]	8.10
Cc1ccccc1O[C@H]1C[C@H](C(=O)N2CCCN(C3CCC3)CC2)N(C(=O)OC(C)(C)C)C1 [Example 30, (2R,4S)-2-(4-Cyclobutyl-[1,4]diazepane-1-carbonyl)-4-o-tolyloxy-pyrrolidine-1-carboxylic acid tert-butyl ester]	8.10
CC(C)(C)OC(=O)N1C[C@@H](Oc2ccc(F)cc2)C[C@@H]1C(=O)N1CCCN(C2CC2)CC1 [Example 31, (2R,4S)-2-(4-Cyclopropyl-[1,4]diazepane-1-carbonyl)-4-(4-fluoro-phenoxy)-pyrrolidine-1-carboxylic acid tert-butyl ester]	7.82
CC(C)(C)OC(=O)N1C[C@@H](Oc2ccc(C#N)cc2)C[C@@H]1C(=O)N1CCCN(C2CC2)CC1 [Example 32, (2R,4S)-4-(4-Cyano-phenoxy)-2-(4-cyclopropyl-[1,4]diazepane-1-carbonyl)-pyrrolidine-1-carboxylic acid tert-butyl ester]	8.00
CC(C)(C)OC(=O)N1C[C@@H](Oc2ccc(F)cc2)C[C@@H]1C(=O)N1CCN(C2CCCC2)CC1 [Example 33, (2R,4S)-2-(4-Cyclopentyl-piperazine-1-carbonyl)-4-(4-fluoro-phenoxy)-pyrrolidine-1-carboxylic acid tert-butyl ester]	7.62
CC(C)(C)OC(=O)N1C[C@@H](Oc2ccc(C#N)cc2)C[C@@H]1C(=O)N1CCN(C2CCCC2)CC1 [Example 34, (2R,4S)-4-(4-Cyano-phenoxy)-2-(4-cyclopentyl-piperazine-1-carbonyl)-pyrrolidine-1-carboxylic acid tert-butyl ester]	7.85
CC(C)(C)OC(=O)N1C[C@@H](Oc2ccc(F)cc2)C[C@@H]1C(=O)N1CCCN(C2CCCC2)CC1 [Example 35, (2R,4S)-2-(4-Cyclopentyl-[1,4]diazepane-1-carbonyl)-4-(4-fluoro-phenoxy)-pyrrolidine-1-carboxylic acid tert-butyl ester]	8.70
CC(C)(C)OC(=O)N1C[C@@H](Oc2ccc(C#N)cc2)C[C@@H]1C(=O)N1CCCN(C2CCCC2)CC1 [Example 36, (2R,4S)-4-(4-Cyano-phenoxy)-2-(4-cyclopentyl-[1,4]diazepane-1-carbonyl)-pyrrolidine-1-carboxylic acid tert-butyl ester]	8.52
CN(C)[C@@H]1CCN(C(=O)[C@H]2C[C@H](Oc3cccc(F)c3)CN2C(=O)OC(C)(C)C)C1 [Example 37, (2R,4S)-2-((3R)-3-Dimethylamino-pyrrolidine-1-carbonyl)-4-(3-fluoro-phenoxy)-pyrrolidine-1-carboxylic acid tert-butyl ester]	< 5.00
CC(C)(C)OC(=O)N1C[C@@H](Oc2cccc(F)c2)C[C@@H]1C(=O)N1CCC(N2CCCC2)C1 (stereo partly drawn) [Example 39, (2R,4S)-2-([1,3′]Bipyrrolidinyl-1′-carbonyl)-4-(3-fluoro-Phenoxy)-pyrrolidine-1-carboxylic acid tert-butyl ester]	7.37
CN(C)C1CCN(C(=O)[C@H]2C[C@H](Oc3ccc(F)cc3)CN2C(=O)OC(C)(C)C)CC1 [Example 40, (2R,4S)-2-(4-Dimethylamino-piperidine-1-carbonyl)-4-(4-fluoro-phenoxy)-pyrrolidine-1-carboxylic acid tert-butyl ester]	5.91
CC(C)(C)OC(=O)N1C[C@H](Oc2ccccc2)C[C@H]1C(=O)N1CCCN(C2CCC2)CC1 [Example 48, (2S,4R)-2-(4-Cyclobutyl-[1,4]diazepane-1-carbonyl)-4-phenoxy-pyrrolidine-1-carboxylic acid tert-butyl ester]	7.85
CC(C)(C)OC(=O)N1C[C@H](Oc2cccc(F)c2)C[C@H]1C(=O)N1CCCN(C2CCC2)CC1 [Example 49, (2S,4R)-2-(4-Cyclobutyl-[1,4]diazepane-1-carbonyl)-4-(3-fluoro-phenoxy)-pyrrolidine-1-carboxylic acid tert-butyl ester]	8.22
Cc1cnc(O[C@H]2C[C@H](C(=O)N3CCCN(C4CCC4)CC3)N(C(=O)OC(C)(C)C)C2)cc1I [Example 52, (2R,4S)-2-(4-Cyclobutyl-[1,4]diazepane-1-carbonyl)-4-(4-iodo-5-methyl-pyridin-2-yloxy)-pyrrolidine-1-carboxylic acid tert-butyl ester]	8.10
CC(C)(C)OC(=O)N1C[C@@H](Oc2cccnc2)C[C@@H]1C(=O)N1CCCN(C2CCC2)CC1 [Example 53, (2R,4S)-2-(4-Cyclobutyl-[1,4]diazepane-1-carbonyl)-4-(pyridin-3-yloxy)-pyrrolidine-1-carboxylic acid tert-butyl ester]	8.70
CC(C)(C)OC(=O)N1C[C@@H](Oc2ccsc2)C[C@@H]1C(=O)N1CCCN(C2CCC2)CC1 [Example 54, (2R,4S)-2-(4-Cyclobutyl-[1,4]diazepane-1-carbonyl)-4-(thiophen-3-yloxy)-pyrrolidine-1-carboxylic acid tert-butyl ester]	7.96
